Here are results for nine molecules from US9982138B2, “Hair color compositions comprising stable violet-blue to blue imidazolium dyes” (Noxell Corporation, priority 2016, dated 2018).

Type in all cases: physicochemical
Data set [1] in a line: In-use disappearance of the dye in ammonia buffer with hydrogen peroxide (UV/visible absorbance). The note with it: % loss recorded at 30 minutes in the presence of a 3% peroxide solution at pH 10.58. How it is done:
Disappearance of the dye is measured on a Cary 100 UV/visible spectrophotometer. A solution of the dye in 50% aqueous ethanol at a concentration sufficient to give an absorbance of 2.0 at the dye's λmax and buffered at pH 10.6 with ammonia is mixed with an equal volume of 6% hydrogen peroxide in a 1 cm quartz cuvette. […]

Data set [2] is described as follows: Storage stability: disappearance of the dye on storage at pH 10, 25° C. (UV/visible absorbance). Particulars: % loss on 1-month storage at pH 10, 25° C. The procedure: Disappearance of the dye is measured on a Cary 100 UV/visible spectrophotometer using a 1 cm cuvette. A solution of the dye is prepared at a concentration sufficient to give an absorbance of 0.9-1.1 at the dye's λmax when buffered at pH 10.0. The absorbance is measured after storage at 25° C. Percent disappearance is calculated as the difference between the starting absorbance (A0) and the absorbance (At) at a specific storage period divided by the starting absorbance minus the baseline absorbance (Ab), by the following equation: […]

A short description of data set [3]: Color (λmax) by UV/visible spectrophotometer.

Structures can show the parent of a compound that is named as a salt.

With `CCCCCN1CCNc2cc(/N=N/c3n(CCCN)cc[n+]3CCCN)ccc21.Cl.Cl.[Br-]` [Compound 5, (E)-1,3-bis(3-ammoniopropyl)-2-((1-pentyl-1,2,3,4-tetrahydroquinoxalin-6-yl)diazenyl)-1H-imidazol-3-ium bromide dichloride], the “% Disappearance (In-use)” value in data set [1] turned out to be 2.9%. In data set [2], the “% Disappearance (Storage)” value came to 3.14%. For the same molecule, the “Color (λmax; nm)” value in data set [3] came to 582 nm.

Turning to `CCN1CCN(CC)c2cc(/N=N/c3n(CCC[N+](C)(C)C)cc[n+]3CCC[N+](C)(C)C)ccc21` [Compound 2, (E)-2-((1,4-diethyl-1,2,3,4-tetrahydroquinoxalin-6-yl)diazenyl)-1,3-bis(3-(trimethyl-ammonio)propyl)-1H-imidazol-3-ium tribromide], the “% Disappearance (In-use)” value in data set [1] was 0%. For the same molecule, the “% Disappearance (Storage)” value in data set [2] was determined as 0.71%. Also, in data set [3], the “Color (λmax; nm)” value is listed as 580 nm.

Turning to `Cn1cc[n+](C)c1/N=N/c1cc2c3c(c1)OCCN3CCO2` [Compound 8, (E)-1,3-dimethyl-2-((2,3,4,5-tetrahydro-1,6-dioxa-3a-azaphenalen-8-yl)diazenyl)-1H-imidazol-3-ium methyl sulfate], the “% Disappearance (In-use)” value in data set [1] worked out at 1.28%. The “% Disappearance (Storage)” value in data set [2] was 1.27%. In data set [3], the “Color (λmax; nm)” value turned out to be 553 nm.

Take `CCN1CCN(CC)c2cc(/N=N/c3n(CCC[N+](C)(C)C)cc[n+]3CCC[N+](C)(C)C)ccc21` [Compound 6]: in data set [1], the “% Disappearance (In-use)” value turned out to be 10.86%. Also, the “% Disappearance (Storage)” value in data set [2] was found to be 3.47%. Also, the “Color (λmax; nm)” value in data set [3] is listed as 592 nm.

Turning to `CCN1CCN(CC)c2cc(/N=N/c3n(CCCCN)cc[n+]3CCCCN)ccc21` [Compound 9], the “% Disappearance (In-use)” value in data set [1] came out at 1.85%. Moreover, in data set [2], the “% Disappearance (Storage)” value was 3.37%. For the same molecule, the “Color (λmax; nm)” value in data set [3] is on record as 587 nm.

`CCN1CCN(CC)c2cc(/N=N/c3n(CCCN)cc[n+]3CCCN)ccc21.Cl.Cl.[Br-]` [Compound 1, (E)-1,3-bis(3-ammoniopropyl)-2-((1,4-diethyl-1,2,3,4-tetrahydroquinoxalin-6-yl)diazenyl)-1H-imidazol-3-ium bromide dichloride]: the “% Disappearance (In-use)” value in data set [1] is listed as 2.0%. The “% Disappearance (Storage)” value in data set [2] is given as 2.05%. In data set [3], the “Color (λmax; nm)” value is 587 nm.

For the molecule `CCCCCN1CCN(CCCCC)c2cc(/N=N/c3n(CCCCN)cc[n+]3CCCCN)ccc21.Cl.Cl.[Br-]` [Compound 4, (E)-1,3-bis(4-ammoniobutyl)-2-((1,4-dipentyl-1,2,3,4-tetrahydroquinoxalin-6-yl)diazenyl)-1H-imidazol-3-ium bromide dichloride], in data set [1], the “% Disappearance (In-use)” value came to 1.85%. The “% Disappearance (Storage)” value in data set [2] was 3.86%. Moreover, the “Color (λmax; nm)” value in data set [3] worked out at 599 nm.

With `CN1CCNc2cc(/N=N/c3n(CCCN)cc[n+]3CCCN)ccc21.Cl.Cl.[Br-]` [Compound 3, (E)-1,3-bis(3-ammoniopropyl)-2-((1-methyl-1,2,3,4-tetrahydroquinoxalin-6-yl)diazenyl)-1H-imidazol-3-ium bromide dichloride], the “% Disappearance (In-use)” value in data set [1] was found to be 1.91%. For the same molecule, in data set [2], the “% Disappearance (Storage)” value worked out at 4.55%. The “Color (λmax; nm)” value in data set [3] is reported as 580 nm.

Take `C=CCN1CCN(CC=C)c2cc(/N=N/c3n(CCCCN)cc[n+]3CCCCN)ccc21` [Compound 7]: the “% Disappearance (In-use)” value in data set [1] worked out at 0.8%. For the same molecule, the “% Disappearance (Storage)” value in data set [2] was 4.79%. The “Color (λmax; nm)” value in data set [3] came to 580 nm.
